# Measurements taken from patent publication US20240190860A1, “8-CYCLO-SUBSTITUTED QUINAZOLINE DERIVATIVES AS LPA RECEPTOR 2 INHIBITORS” (CHIESI FARMACEUTICI S.p.A., priority 2021, published 2024).
# Biological target: T1, human recombinant LPA2 expressed in CHO cells (Homo sapiens, UniProt Q9HBW0)
# T1 construct: expressed in transfected cells; host or cells: CHO cells (CHO-hLPA2 cell line)
# Assay: FLIPR calcium mobilization assay, LPA2 antagonism in CHO-hLPA2 cells
# Format: cell-based
# Settings: CHO-hLPA2 cells, inhibition of LPA EC80 Ca2+ response, 30 min pre-incubation; read-out: LPA2 IC50
# Procedure, shortened: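 CHO cells stably expressing human LPA2, loaded 30 min at 37° C with 5 μM Cal-520 AM plus 2.5 mM probenecid in HEPES buffer pH 7.4, then preincubated 30 min with antagonist (11-point series, 0.5% DMSO final). Challenged with LPA at EC80; baseline-subtracted peak FLIPR fluorescence converted to % inhibition and pIC50 by four-parameter logistic fit.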
# T1 sequence (Q9HBW0 whole entry): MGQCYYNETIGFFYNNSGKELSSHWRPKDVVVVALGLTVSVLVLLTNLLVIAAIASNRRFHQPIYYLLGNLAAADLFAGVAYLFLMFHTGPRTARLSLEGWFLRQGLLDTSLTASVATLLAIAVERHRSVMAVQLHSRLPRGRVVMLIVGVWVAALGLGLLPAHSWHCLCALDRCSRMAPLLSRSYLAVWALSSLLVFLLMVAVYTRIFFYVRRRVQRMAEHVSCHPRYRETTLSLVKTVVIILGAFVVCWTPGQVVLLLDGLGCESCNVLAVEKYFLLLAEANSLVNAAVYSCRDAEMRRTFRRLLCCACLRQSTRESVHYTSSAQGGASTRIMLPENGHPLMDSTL
row,Structure (SMILES),IC50 [nM]
1,"C[C@@H](CN1CCN(S(=O)(=O)c2ccc3[nH]c(=O)cnc3c2)CC1)Nc1ncnc2c(-c3cccnc3)cccc12 [Example 59, 6-({4-[(2S)-2-{[8-(pyridin-3-yl)quinazolin-4-yl]amino}propyl]piperazin-1-yl}sulfonyl)-1,2-dihydroquinoxalin-2-one]",10 to 100
2,"COC(=O)Nc1nc(C)c(S(=O)(=O)N2CCN(C[C@H](C)Nc3ncnc4c(-c5ccc(CN(C)C)nc5)cccc34)CC2)s1 [Example 60, methyl N-[5-({4-[(2S)-2-[(8-{6-[(dimethylamino)methyl]pyridin-3-yl}quinazolin-4-yl)amino]propyl]piperazin-1-yl}sulfonyl)-4-methyl-1,3-thiazol-2-yl]carbamate]",< 10
3,"COC(=O)Nc1nc(C)c(S(=O)(=O)N2CCN(C[C@H](C)Nc3ncnc4c(-c5cncc(N)c5)cccc34)CC2)s1 [Example 61, methyl N-[5-({4-[(2S)-2-{[8-(5-aminopyridin-3-yl)quinazolin-4-yl]amino}propyl]piperazin-1-yl}sulfonyl)-4-methyl-1,3-thiazol-2-yl]carbamate]",< 10
4,"COC(=O)Nc1nc(C)c(S(=O)(=O)N2CCN(C[C@H](C)Nc3ncnc4c(-c5cn(C)nc5C)cccc34)CC2)s1 [Example 63, methyl N-[5-({4-[(2S)-2-{[8-(1,3-dimethyl-1H-pyrazol-4-yl)quinazolin-4-yl]amino}propyl]piperazin-1-yl}sulfonyl)-4-methyl-1,3-thiazol-2-yl]carbamate]",< 10
5,"CC(=O)N1CCc2cc(S(=O)(=O)N3CCN(C[C@H](C)Nc4ncnc5c(-c6cn(C)nc6C(F)(F)F)cccc45)CC3)ccc21 [Example 68, 1-[5-({4-[(2S)-2-({8-[1-methyl-3-(trifluoromethyl)-1H-pyrazol-4-yl]quinazolin-4-yl}amino)propyl]piperazin-1-yl}sulfonyl)-2,3-dihydro-1H-indol-1-yl]ethan-1-one]",< 10
6,"COC(=O)Nc1nc(C)c(S(=O)(=O)N2CCN(C[C@H](C)Nc3ncnc4c(-c5cncc(NC=O)c5)cccc34)CC2)s1 [Example 72, methyl N-[5-({4-[(2S)-2-{[8-(5-formamidopyridin-3-yl)quinazolin-4-yl]amino}propyl]piperazin-1-yl}sulfonyl)-4-methyl-1,3-thiazol-2-yl]carbamate]",< 10
7,"COC(=O)Nc1nc(C)c(S(=O)(=O)N2CCN(C[C@H](C)Nc3ncnc4c(-c5ccc(F)c(Cl)n5)cccc34)CC2)s1 [Example 74, methyl N-[5-({4-[(2S)-2-{[8-(6-chloro-5-fluoropyridin-2-yl)quinazolin-4-yl]amino}propyl]piperazin-1-yl}sulfonyl)-4-methyl-1,3-thiazol-2-yl]carbamate]",10 to 100
8,"COC(=O)Nc1ncc(S(=O)(=O)N2CCN(C[C@H](C)Nc3ncnc4c(-c5cccc(CN(C)C)c5)cccc34)CC2)s1 [Example 75, methyl N-[5-({4-[(2S)-2-[(8-{3-[(dimethylamino)methyl]phenyl}quinazolin-4-yl)amino]propyl]piperazin-1-yl}sulfonyl)-1,3-thiazol-2-yl]carbamate]",< 10
9,"C[C@@H](CN1CCN(S(=O)(=O)c2ccc3[nH]c(=O)[nH]c(=O)c3c2)CC1)Nc1ncnc2c(-c3cccc(CN(C)C)c3)cccc12 [Example 77, 6-({4-[(2S)-2-[(8-{3-[(dimethylamino)methyl]phenyl}quinazolin-4-yl)amino]propyl]piperazin-1-yl}sulfonyl)-1,2,3,4-tetrahydroquinazoline-2,4-dione]",< 10
10,"Cc1ccc(-c2cccc3c(N[C@@H](C)CN4CCN(S(=O)(=O)c5ccc6[nH]c(=O)sc6c5)CC4)ncnc23)cn1 [Example 78, 6-({4-[(2S)-2-{[8-(6-methylpyridin-3-yl)quinazolin-4-yl]amino}propyl]piperazin-1-yl}sulfonyl)-2,3-dihydro-1,3-benzothiazol-2-one]",10 to 100
11,"C[C@@H](CN1CCN(S(=O)(=O)c2ccc3[nH]c(=O)sc3c2)CC1)Nc1ncnc2c(-c3cn(C)nc3C(F)(F)F)cccc12 [Example 79, 6-({4-[(2S)-2-({8-[1-methyl-3-(trifluoromethyl)-1H-pyrazol-4-yl]quinazolin-4-yl}amino)propyl]piperazin-1-yl}sulfonyl)-2,3-dihydro-1,3-benzothiazol-2-one]",< 10
12,"COCC(=O)Nc1ncc(S(=O)(=O)N2CCN(C[C@H](C)Nc3ncnc4c(-c5cccc(CN(C)C)c5)cccc34)CC2)s1 [Example 81, N-[5-({4-[(2S)-2-[(8-{3-[(dimethylamino)methyl]phenyl}quinazolin-4-yl)amino]propyl]piperazin-1-yl}sulfonyl)-1,3-thiazol-2-yl]-2-methoxyacetamide]",< 10
13,"COC(=O)Nc1nc(C)c(S(=O)(=O)N2CCN(C[C@H](C)Nc3ncnc4c(-c5c[nH]nc5C(F)(F)F)cccc34)CC2)s1 [Example 82, methyl N-[4-methyl-5-({4-[(2S)-2-({8-[3-(trifluoromethyl)-1H-pyrazol-4-yl]quinazolin-4-yl}amino)propyl]piperazin-1-yl}sulfonyl)-1,3-thiazol-2-yl]carbamate]",< 10

# The next lines start with the values.
row,IC50 [nM],Structure (SMILES)
1,< 10,"COC(=O)Nc1nc(C)c(S(=O)(=O)N2CCN(C[C@H](C)Nc3ncnc4c(-c5cnn(C)c5C)cccc34)CC2)s1 [Example 64, methyl N-[5-({4-[(2S)-2-{[8-(1,5-dimethyl-1H-pyrazol-4-yl)quinazolin-4-yl]amino}propyl]piperazin-1-yl}sulfonyl)-4-methyl-1,3-thiazol-2-yl]carbamate]"
2,< 10,"COC(=O)Nc1nc(C)c(S(=O)(=O)N2CCN(C[C@H](C)Nc3ncnc4c(-c5cnn(C)c5)cccc34)CC2)s1 [Example 65, methyl N-[4-methyl-5-({4-[(2S)-2-{[8-(1-methyl-1H-pyrazol-4-yl)quinazolin-4-yl]amino}propyl]piperazin-1-yl}sulfonyl)-1,3-thiazol-2-yl]carbamate]"
3,10 to 100,"C[C@@H](CN1CCN(S(=O)(=O)c2ccc3c(c2)CC(=O)N3)CC1)Nc1ncnc2c(-c3cccnc3)cccc12 [Example 66, 5-({4-[(2S)-2-{[8-(pyridin-3-yl)quinazolin-4-yl]amino}propyl]piperazin-1-yl}sulfonyl)-2,3-dihydro-1H-indol-2-one]"
4,< 10,"COC(=O)Nc1nc(C)c(S(=O)(=O)N2CCN(C[C@H](C)Nc3ncnc4c(-c5cncc(N6CCN(C)CC6)c5)cccc34)CC2)s1 [Example 67, methyl N-[4-methyl-5-({4-[(2S)-2-({8-[5-(4-methylpiperazin-1-yl)pyridin-3-yl]quinazolin-4-yl}amino)propyl]piperazin-1-yl}sulfonyl)-1,3-thiazol-2-yl]carbamate]"
5,< 10,"CC(=O)N1CCc2cc(S(=O)(=O)N3CCN(C[C@H](C)Nc4ncnc5c(-c6ccc(C)nc6)cccc45)CC3)ccc21 [Example 69, 1-[5-({4-[(2S)-2-{[8-(6-methylpyridin-3-yl)quinazolin-4-yl]amino}propyl]piperazin-1-yl}sulfonyl)-2,3-dihydro-1H-indol-1-yl}ethan-1-one]"
6,< 10,"COC(=O)Nc1nc(C)c(S(=O)(=O)N2CCN(C[C@H](C)Nc3ncnc4c(-c5cccc(C)n5)cccc34)CC2)s1 [Example 71, methyl N-[4-methyl-5-({4-[(2S)-2-{[8-(6-methylpyridin-2-yl)quinazolin-4-yl]amino}propyl]piperazin-1-yl}sulfonyl)-1,3-thiazol-2-yl]carbamate]"
7,10 to 100,"COC(=O)Nc1nc(C)c(S(=O)(=O)N2CCN(C[C@H](C)Nc3ncnc4c(-c5ccnc(C#N)n5)cccc34)CC2)s1 [Example 73, methyl N-[5-({4-[(2S)-2-{[8-(2-cyanopyrimidin-4-yl)quinazolin-4-yl]amino}propyl]piperazin-1-yl}sulfonyl)-4-methyl-1,3-thiazol-2-yl]carbamate]"
8,< 10,"C[C@@H](CN1CCN(S(=O)(=O)c2ccc3c(c2)CC(=O)N3)CC1)Nc1ncnc2c(-c3cccc(CN(C)C)c3)cccc12 [Example 76, 5-({4-[(2S)-2-[(8-{3-[(dimethylamino)methyl]phenyl}quinazolin-4-yl)amino]propyl]piperazin-1-yl}sulfonyl)-2,3-dihydro-1H-indol-2-one]"
9,< 10,"COC(=O)Nc1nc(C)c(S(=O)(=O)N2CCN(C[C@H](C)Nc3ncnc4c(-c5ccc6c(c5)CN(C)C6)cccc34)CC2)s1 [Example 80, methyl N-[4-methyl-5-({4-[(2S)-2-{[8-(2-methyl-2,3-dihydro-1H-isoindol-5-yl)quinazolin-4-yl]amino}propyl]piperazin-1-yl}sulfonyl)-1,3-thiazol-2-yl]carbamate]"
10,< 10,"Cc1nc2ccc(S(=O)(=O)N3CCN(C[C@H](C)Nc4ncnc5c(-c6cccnc6)cccc45)CC3)cc2s1 [Example 83, N-[(2S)-1-{4-[(2-methyl-1,3-benzothiazol-6-yl)sulfonyl]piperazin-1-yl}propan-2-yl]-8-(pyridin-3-yl)quinazolin-4-amine]"
11,< 10,"Cc1nc2ccc(S(=O)(=O)N3CCN(C[C@H](C)Nc4ncnc5c(-c6cccc(CN(C)C)c6)cccc45)CC3)cc2s1 [Example 84, 8-{3-[(dimethylamino)methyl]phenyl}-N-[(2S)-1-{4-[(2-methyl-1,3-benzothiazol-6-yl)sulfonyl]piperazin-1-yl}propan-2-yl]quinazolin-4-amine]"
12,< 10,"Cc1ccc(-c2cccc3c(N[C@@H](C)CN4CCN(S(=O)(=O)c5ccc(-c6cc(C)no6)s5)CC4)ncnc23)cn1 [Example 85, N-[(2S)-1-(4-{[5-(3-methyl-1,2-oxazol-5-yl)thiophen-2-yl]sulfonyl}piperazin-1-yl)propan-2-yl]-8-(6-methylpyridin-3-yl)quinazolin-4-amine]"
